Test results: patent publication EP4806904A1, “POLYPEPTIDE AND USE THEREOF” (Sichuan Gooddoctor Panxi Pharmaceutical Co. Ltd, priority 2023, dated 2026)
Where a SMILES comes first, the peptide text is derived from it. Where no end group is shown, it is not given here. [ ]: non-standard residue; d: D form.

Key:
[1] = tested on: neural stem cell line C17.2; assay: Proliferation of neural stem cell line C17.2, BrdU, high-content imaging; format: cell-based; details: 100 µg/mL, 48 h; for Proliferation-promoting results: percentage of BrdU-positive cells, significance vs blank control group; for number of BrdU positive cells: vs blank control group, in words
Description: • (1) C17.2 cells were seeded in 96-well plates at a concentration of 1500 cells/100 µL/well. After overnight culture for cell adherence, the cells were treated with drugs; • (2) Drug treatment was applied. The final concentration of the polypeptide of the invention was 100 µg/mL. Meanwhile, butylphthalide (NBP, 5 µM) was set as the positive control. The cells were cultured in the incubator for another 48 h; • (3) BrdU was added at 44 h of treatment to a final concentration of 10 µM. Immunofluorescence staining was performed 4 h later, and the percentage of BrdU-positive cells was statistically analyzed using a high-content cell imaging analysis system.

[2] = tested on: Brain microvascular endothelial cells (BMECs) and brain microvascular smooth muscle cells (BMVSMCs); assay: In vitro angiogenesis assay, BMEC/BMVSMC co-culture on matrigel; format: cell-based, mouse; details: 0.1 mg/L, 48 h
Description: First, mouse brain microvascular pellets were obtained by differential centrifugation. Brain microvascular endothelial cells (BMECs) and brain microvascular smooth muscle cells (BMVSMCs) were isolated by digestion with collagenase II, respectively, and cultured in a cell incubator with 5% CO2 at 37°C . Cells at passages 3-6 in good growth condition and logarithmic growth phase were selected for the in vitro angiogenesis assay.
One night before the experiment, the high-concentration matrigel was transferred from a -20°C or -80°C refrigerator to a 4°C refrigerator and allowed to thaw slowly overnight in the 4°C refrigerator. Pipette tips required for the formal experiment were sterilized in advance and pre-cooled in a 4°C refrigerator for subsequent use.
On the day of the experiment, the matrigel was added to a 96-well plate 1 h in advance and placed in a 37°C cell incubator until it solidified. Subsequently, the cells were washed 2 times with 2 mL of PBS buffer, followed by digestion with 0.25% trypsin to obtain EC and VSMC pellets, respectively, and cell counting was performed. A uniform cell suspension containing 5×10^3 BMVSMCs and 1×10^3 BMECs per well was then seeded into the 96-well plate pre-coated with the matrigel, and cultured in a 37°C, 5% CO2 cell incubator for 3 days.
During the culture period, tube formation was observed daily. The medium was changed on day 4, followed by treatment with the polypeptide of the invention at 0.1 mg/L or VEGFA at 10/15/20 ng/L for 48 h, respectively.
On day 5, the cell nuclei and live cells were labeled with Hoechst 33342 and Calcein AM, respectively. High-content brightfield and fluorescence imaging were then performed using a high-content screening system. Finally, angiogenesis in each treatment group was analyzed using the Angiogenesis Analyzer plugin for ImageJ, and statistical analysis was carried out with GraphPad Prism 10.

[3] = tested on: primary neural stem cells (NSCs); assay: Differentiation of primary neural stem cells, βIII-tubulin fluorescence and Neurite Outgrowth Assay; format: cell-based, SD rats; details: 100 µg/mL; for Longest neurite length / Neurite initiation points (branches) / Number of neurite terminals / Total neurite length / mean fluorescence intensity of the neuronal marker protein βIII-tubulin / neurite outgrowth (total neurite length, maximum neurite length, neurite terminals, neurite initiation points) / Average fluorescence intensity: 4 days; for Longest neurite length / Neurite initiation points (branches) / Number of neurite terminals / Total neurite length / Average fluorescence intensity: significance vs blank control group; for mean fluorescence intensity of the neuronal marker protein βIII-tubulin: vs blank control group; for mean fluorescence intensity of the neuronal marker protein βIII-tubulin / neurite outgrowth (total neurite length, maximum neurite length, neurite terminals, neurite initiation points): in words; for neurite outgrowth (total neurite length, maximum neurite length, neurite terminals, neurite initiation points): Neurite Outgrowth Assay; for Average fluorescence intensity: βIII-tubulin
Description: This part of the experiment requires feeding male and female rats in advance, then extracting hippocampal neural stem cells from newborn SD rats within 24 h of birth, culturing them to P3 for identification, and then using them for experiments. • (1) Extraction and culture of primary neural stem cells (NSCs) • (2) NSCs that have been passaged to P3 and have good viability were seeded in differentiation medium (2% FBS+DMEM/F12 1:1 medium) in 48-well plates with a cell concentration of 5×10^4 cells/mL per well. After overnight culture for cell adherence, the cells were treated with drugs; • (3) Drug treatment was applied. The final concentration of the polypeptide of the invention was 100 µg/mL. Meanwhile, nerve growth factor (NGF, 50 ng/mL) was set as the positive control, and the cells were cultured in the incubator for another 4 days; • (4) Immunofluorescence staining (primary antibody βIII-tubulin) was performed after 4 days of treatment. The average fluorescence intensity of βIII-tubulin was analyzed and the Neurite Outgrowth Assay was performed using a high-content cell imaging analysis system.

[4] = significance vs blank control group

Row | Molecule | Proliferation-promoting results [1] | Cell count [2, 4] | Number of intersections [2, 4] | Branch length ([2]; vs normal group, in words) | number of junctions ([2]; vs normal group, in words) | Longest neurite length [3] | Neurite initiation points (branches) [3] | Number of neurite terminals [3] | Total neurite length [3] | cell proliferation ([2]; vs normal group, in words) | mean fluorescence intensity of the neuronal marker protein βIII-tubulin [3] | number of BrdU positive cells [1] | neurite outgrowth (total neurite length, maximum neurite length, neurite terminals, neurite initiation points) [3] | Average fluorescence intensity [3] | Branch length [2, 4] | angiogenesis-promoting effects ([2]; vs normal group, in words) | differentiation of NSCs into neuronal cells ([3]; conclusion based on the results of the two analytical methods)
1 | CC(C)C[C@H](NC(=O)[C@@H](NC(=O)CNC(=O)[C@@H]1CCCN1C(=O)[C@@H](C)NC(=O)[C@@H]1CCCN1C(=O)[C@H](CC(C)C)NC(=O)[C@H](C)N)[C@@H](C)O)C(=O)O [Compound 5, H-Ala-Leu-Pro-D-Ala-Pro-Gly-Thr-Leu-OH] (H-ALP[dA]PGTL-OH) | ** (**p < 0.01) | * (*p < 0.05) | * (*p < 0.05) | no significant effects | promoting effects | *** (***p < 0.001) | *** (***p < 0.001) | * (*p < 0.05) | ** (**p < 0.01) |  |  |  |  |  |  |  | 
2 | H-ALPAAGTL-OH [Compound 17, H-Ala-Leu-Pro-Ala-Ala-Gly-Thr-Leu-OH] | ** (**p < 0.01) | ** (**p < 0.01) |  |  |  |  |  |  |  | only promoted cell proliferation | tendency to enhance |  |  |  |  |  | 
3 | H-ALPAPGTL-NH2 [Compound 10, H-Ala-Leu-Pro-Ala-Pro-Gly-Thr-Leu-NH2] | ** (**p < 0.01) | * (*p < 0.05) |  |  |  |  |  | ** (**p < 0.01) | * (*p < 0.05) | only promoted cell proliferation | tendency to enhance | significant increase | tendency to promote neurite outgrowth |  |  |  | 
4 | ALPAPG [Compound 40, H-Ala-Leu-Pro-Ala-Pro-Gly-Oh] | * (*p < 0.05) | * (*p < 0.05) |  |  |  |  |  |  |  | only promoted cell proliferation | significant increase | significant increase |  | * (*p < 0.05) |  |  | 
5 | CC(C)C[C@H](NC(=O)[C@@H](NC(=O)CNC(=O)[C@H]1CCCN1C(=O)[C@H](C)NC(=O)[C@@H]1CCCN1C(=O)[C@H](CC(C)C)NC(=O)[C@H](C)N)[C@@H](C)O)C(=O)O [Compound 6, H-Ala-Leu-Pro-Ala-D-Pro-Gly-Thr-Leu-OH] (H-ALPA[dP]GTL-OH) | * (*p < 0.05) |  | ** (**p < 0.01) |  |  | * (*p < 0.05) | * (*p < 0.05) |  | * (*p < 0.05) |  |  |  | tendency to promote neurite outgrowth |  | * (*p < 0.05) | exhibited angiogenesis-promoting effects | 
6 | CC(C)C[C@H](NC(=O)[C@@H](NC(=O)CNC(=O)[C@@H]1CCCN1C(=O)[C@H](C)NC(=O)[C@@H]1CCCN1C(=O)[C@@H](CC(C)C)NC(=O)[C@H](C)N)[C@@H](C)O)C(=O)O [Compound 3, H-Ala-D-Leu-Pro-Ala-Pro-Gly-Thr-Leu-OH] (H-A[dL]PAPGTL-OH) |  | * (*p < 0.05) |  |  |  | ** (**p < 0.01) | * (*p < 0.05) | * (*p < 0.05) | ** (**p < 0.01) | only promoted cell proliferation | significant increase | tendency to increase |  | * (*p < 0.05) |  |  | promote the differentiation of NSCs into neuronal cells with stable effects
7 | Ac-ALPAPGTL-NH2 [Compound 11, Ac-Ala-Leu-Pro-Ala-Pro-Gly-Thr-Leu-NH2] | ** (**p < 0.01) |  | * (*p < 0.05) |  |  | ** (**p < 0.01) | *** (***p < 0.001) | ** (**p < 0.01) | *** (***p < 0.001) |  |  | significant increase | promote neurite outgrowth |  | * (*p < 0.05) | exhibited angiogenesis-promoting effects | 
8 | H-LAPAPGTI-OH [Compound 20, H-Leu-Ala-Pro-Ala-Pro-Gly-Thr-Ile-OH] | * (*p < 0.05) |  | * (*p < 0.05) | no significant effects | promoting effects | * (*p < 0.05) | * (*p < 0.05) |  |  |  | tendency to enhance |  | tendency to promote neurite outgrowth |  |  |  | 
9 | C[C@H](NC(=O)[C@@H]1CCCN1)C(=O)N1CCC[C@H]1C(=O)NCC(=O)O [Compound 36, H-Pro-Ala-Pro-Gly-OH] (H-PAPG-OH) | ** (**p < 0.01) | ** (**p < 0.01) |  | promoting effects | no significant effects |  |  | * (*p < 0.05) | * (*p < 0.05) |  |  | significant increase | tendency to promote neurite outgrowth |  | ** (**p < 0.01) |  | 
10 | H-ALPAGGTL-OH [Compound 15, H-Ala-Leu-Pro-Ala-Gly-Gly-Thr-Leu-OH] | * (*p < 0.05) |  | * (*p < 0.05) | no significant effects | promoting effects | * (*p < 0.05) |  |  |  |  |  |  | tendency to promote neurite outgrowth |  |  |  | 
11 | CC(C)C[C@H](NC(=O)[C@H](NC(=O)CNC(=O)[C@@H]1CCCN1C(=O)[C@H](C)NC(=O)[C@@H]1CCCN1C(=O)[C@H](CC(C)C)NC(=O)[C@H](C)N)[C@H](C)O)C(=O)O [Compound 7, H-Ala-Leu-Pro-Ala-Pro-Gly-D-Thr-Leu-OH] (H-ALPAPG[dT]L-OH) | ** (**p < 0.01) | ** (**p < 0.01) |  |  |  | * (*p < 0.05) |  |  | * (*p < 0.05) | only promoted cell proliferation |  |  | tendency to promote neurite outgrowth |  |  |  | 
